How the values were obtained:
[1] = tested on: hepatitis B core antigen (HBcAg); assay: Liver HBcAg assay in HBV transgenic mice; assay type: in vivo; settings: 2.3 mg/(kg d)
Description: (§1) Experimental design. DCP was administered per os, once daily for 14 days to randomly assigned HBV transgenic mice at 23, 7.3, and 2.3 mg/(kg d). ADV was used as a positive control at 10 mg/(kg d) using the same treatment schedule and vehicle (0.4% CMC). On day 14, mice were euthanized to collect serum and liver samples to perform liver HBV DNA, liver core and serum HBe assays, serum cytokine/chemokine profiles, and IDO metabolite assays.
Liver HBcAg assay. Liver biopsies were processed for detection of hepatitis B core antigen (HBcAg) (Motley J D, Motter N E, Taro B, Lay M & Fairman J. Efficacy of cationic lipid-DNA complexes (CLDC) on hepatitis B virus in transgenic mice. Antiviral Res 2008; 79:71-79). Three different parameters were obtained from each tissue section. […] The first two parameters were obtained by counting cells surrounding central veins as follows: the total number of cells, the number of cells with stained nuclei, and the number of cells with stained cytoplasms. The identities of the samples were blinded to person counting. The stained nuclei counts or the stained cytoplasm counts were divided by the total cells. Three central vein areas were counted for each slide sample. For the third parameter, a field not in a central vein area was counted for the total number of stained nuclei. One-quarter of the field was counted. Three such fields were counted per liver section. The identity of the samples was blinded to the person reading the slides.

[2] = tested on: serum cytokines/chemokines; assay: Serum cytokine/chemokine array in HBV transgenic mice; assay type: in vivo
Description: as §1
Liver or serum cytokine/chemokine array. Liver samples were prepared for the Q-Plex™ mouse cytokine/chemokine array (Quansys Biosciences, Logan, Utah) as described previously (Morrey J D, Molter N E, Taro B, Lay M & Fairman J. Efficacy of cationic lipid-DNA complexes (CLDC) on hepatitis B virus in transgenic mice. Antiviral Res 2008; 79:71-79).

[3] = Toxicity by body weight changes in nude mice; assay type: in vivo, athymic nude mice
Description: The aims of the 1st experiment were to determine a dose-response curve for the (1:4 mol:mol) calcium pterin suspension, to compare the antitumor activity of this suspension to pterin alone (pterin control), and to test the effect of CaPterin mega-dosing at 100 mg/kg/day. Antitumor efficacy was evaluated in nude mice with MDA-MB-231 human tumor xenographs by Perry Scientific (San Diego, Calif.). In the 1st experiment, twenty-three athymic nude (nu/nu) female mice, ages 3-4 weeks, were purchased from Harlan Sprague Dawley, Inc. (Indianapolis, Ind.). 5×10^6 MDA-MB-231 cancer cells were injected subcutaneously into the right flank of each mouse. When tumors reached 3-5 mm in size, twenty mice were divided into four treatment/control groups of five mice each. The four treatment groups were: (1:4 mol:mol) calcium pterin (7 mg/kg/day); pterin (21 mg/kg/day); (1:4 mol:mol) calcium pterin (21 mg/kg/day); and sterile water control. […]
The control mice in the 1st experiment were treated with sterile water while the control mice in the 2nd experiment were untreated to evaluate the effect of mouse handling and gavaging upon tumor growth. […] Tumors were measured twice weekly with calipers and body weights taken twice weekly on the day of tumor measurements. […]

[4] = tested on: MDA-MB-231 human breast xenographs; settings: Moheno, 2004, cited from earlier work
[5] = tested on: spontaneous mammary gland tumors; settings: C3H/HeN-MTV+ mice; Moheno, 2004; cited from earlier work

Nc1nc([O-])c2nccnc2n1.Nc1nc([O-])c2nccnc2n1.[Ca+2] [DCP, dipterinyl calcium pentahydrate]
HBcAg Stained nuclei/total, Female levels (mean ± SEM) ([1]; female): 0.36 ± 0.046
HBcAg Stained nuclei/total, Male levels (mean ± SEM) ([1]; male): 0.51 ± 0.041
serum chemokine RANTES versus controls ([2]; male HBV mice, 2.3 mg/(kg day)): significant decrease
IL-4, Female levels (mean ± SEM) ([2]; serum, female, 7.3 mg/(kg d)): 241 ± 53 rel. pg/ml
IL-9, Female levels (mean ± SEM) ([2]; serum, female, 7.3 mg/(kg d)): 185 ± 28 rel. pg/ml
IL-12, Female levels (mean ± SEM) ([2]; serum, female, 7.3 mg/(kg d)): 642 ± 11 rel. pg/ml
IL-4, Male levels (mean ± SEM) ([2]; serum, male, 7.3 mg/(kg d)): 87 ± 28 rel. pg/ml
IL-9, Male levels (mean ± SEM) ([2]; serum, male, 7.3 mg/(kg d)): 112 ± 13 rel. pg/ml
IL-12, Male levels (mean ± SEM) ([2]; serum, male, 7.3 mg/(kg d)): 575 ± 17 rel. pg/ml

(1:4 mol:mol) calcium pterin [CaPterin]
toxicity (appreciable weight loss) ([3]; mega-dosed 100 mg/kg/day oral gavage for up to 31 days): no observed toxicity
greatest weight loss (body weight) ([3]; mega-dosed group 100 mg/kg/day, one mouse, after 32 days): 8.1%
T/C ratio ([4]; 7 mg/kg/day): 41%
antitumor efficacy against MDA-MB-231 human breast xenographs ([4]; nude mice): significant antitumor efficacy
activity against spontaneous mammary gland tumors [5]: highly significant activity
